Laboratory results as given in paper PMC8400246, “Antimicrobial Activity and Action Mechanisms of Arg-Rich Short Analog Peptides Designed from the C-Terminal Loop Region of American Oyster Defensin (AOD)” (Marine Drugs, 2021).
Positions of bridges follow the written chain, without caps; N, C: chain ends. Residues, ends and D or L forms follow the SMILES beside them.

Tests used:
B. subtilis KCTC1021 = experiment: Ultrasensitive radial diffusion assay (URDA), MEC; type: cell-based, Bacillus subtilis; conditions: B. subtilis KCTC1021, Gram +, 10 mM phosphate buffer pH 6.6, 37 °C, X-intercept of clearing zone vs log10 concentration, triplicate, averaged
Protocol: (§1) The antimicrobial activity of the AOD analogs was assessed with an ultrasensitive radial diffusion assay (URDA), as described previously. The antimicrobial activity of the analogs (from 31.3 to 1000 μg/mL, 5 μL volume) was tested against several bacteria, including Bacillus subtilis KCTC1021, Streptococcus mutans KCCM40105, Aeromonas hydrophila KCTC2358, Escherichia coli D31, E. coli ML35p, Pseudomonas aeruginosa KCTC2004, Salmonella enterica KCTC2514, and Shigella sonnei KCTC2009. In addition, Cutibacterium acnes KCTC3314, Staphylococcus epidermidis KCTC1917, and Candida albicans KCTC7965 were used for the anti-acne activity test. All except C. acnes KCTC3314 were grown overnight for 18 h in tryptic soy broth (TSB; for bacteria) or Sabouraud dextrose broth (SDB; for C. albicans) at the appropriate temperature (25 °C for A. hydrophila, 37 °C for the others). C. acnes was grown for 72 h in reinforced clostridial medium (RCM) under anaerobic conditions with an anaerobic gas-generating pouch (GasPak EZ; Becton Dickinson and Company, Sparks, MD, USA) at 37 °C. Following overnight or 72-h incubation, the bacterial and C. albicans suspensions were diluted to a McFarland turbidity standard level of 0.5 (Vitek Colorimeter #52-1210; Hach, Loveland, CO, USA) corresponding to approximately 10^8 colony forming units (CFU)/mL for bacteria and 10^6 CFU/mL for C. albicans. Diluted bacterial or C. albicans suspension (0.5 mL) was added to 9.5 mL underlay gel containing 5 × 10^6 or 5 × 10^4 CFU/mL in 10 mM phosphate buffer (pH 6.6) with 0.03% TSB (or RCM) or 0.03% SDB and 1% Type I low-electroendosmosis agarose. The AOD analogs were serially diluted two-fold in 5 µL acidified water (0.01% acetic acid; HAc) and each dilution was added to 2.5-mm diameter wells in the 1-mm thick underlay gel. After incubation for 3 h at either 25 °C (for A. hydrophila) or 37 °C (for the others), the bacterial or yeast suspension was overlaid with 10 mL double-strength overlay gel containing 6% TSB, RCM, or SDB with 10 mM phosphate buffer (pH 6.6) in 1% agarose. Plates were incubated for an additional 18–24 h (72 h for C. acnes) and the clearing zone diameters were measured. After subtracting the diameter of the well (2.5 mm), the clearing zone diameter was expressed in units (0.1 mm = 1 U).
(§2) The minimal effective concentration (MEC; μg/mL) of the AOD analogs was calculated as the X-intercept of a plot of clearing zone diameter units against the log10 of the peptide concentration. Piscidin 1, an α-helical AMP isolated from hybrid striped bass (Morone saxatilis × Morone chrysops) was used as a positive control.

C. acnes KCTC3314 = experiment: Ultrasensitive radial diffusion assay (URDA), MEC; type: cell-based, Cutibacterium acnes; conditions: C. acnes KCTC3314, Gram +, anaerobic, RCM, 72 h, 37 °C, triplicate, averaged
Protocol: as §1, §2

S. epidermidis KCTC1917 = experiment: Ultrasensitive radial diffusion assay (URDA), MEC; type: cell-based, Staphylococcus epidermidis; conditions: S. epidermidis KCTC1917, Gram +, pH 6.6, 37 °C, triplicate, averaged
Protocol: as §1, §2

S. mutans KCCM40105 = experiment: Ultrasensitive radial diffusion assay (URDA), MEC; type: cell-based, Streptococcus mutans; conditions: S. mutans KCCM40105, Gram +, pH 6.6, 37 °C, triplicate, averaged
Protocol: as §1, §2

A. hydrophila KCTC2358 = experiment: Ultrasensitive radial diffusion assay (URDA), MEC; type: cell-based, Aeromonas hydrophila; conditions: A. hydrophila KCTC2358, Gram -, pH 6.6, 25 °C, triplicate, averaged
Protocol: as §1, §2

E. coli D31 = experiment: Ultrasensitive radial diffusion assay (URDA), MEC; type: cell-based, Escherichia coli; conditions: E. coli D31, Gram -, pH 6.6, 37 °C, triplicate, averaged
Protocol: as §1, §2

E. coli ML35p = experiment: Ultrasensitive radial diffusion assay (URDA), MEC; type: cell-based, Escherichia coli; conditions: Gram -, pH 6.6, 37 °C, triplicate, averaged
Protocol: as §1, §2

P. aeruginosa KCTC2004 = experiment: Ultrasensitive radial diffusion assay (URDA), MEC; type: cell-based, Pseudomonas aeruginosa; conditions: P. aeruginosa KCTC2004, Gram -, pH 6.6, 37 °C, triplicate, averaged
Protocol: as §1, §2

S. enterica KCTC2514 = experiment: Ultrasensitive radial diffusion assay (URDA), MEC; type: cell-based, Salmonella enterica; conditions: S. enterica KCTC2514, Gram -, pH 6.6, 37 °C, triplicate, averaged
Protocol: as §1, §2

S. sonnei KCTC2009 = experiment: Ultrasensitive radial diffusion assay (URDA), MEC; type: cell-based, Shigella sonnei; conditions: S. sonnei KCTC2009, Gram -, pH 6.6, 37 °C, triplicate, averaged
Protocol: as §1, §2

C. albicans KCTC7965 = experiment: Ultrasensitive radial diffusion assay (URDA), MEC; type: cell-based, Candida albicans; conditions: C. albicans KCTC7965, yeast, SDB, pH 6.6, 37 °C, triplicate, averaged
Protocol: as §1, §2

100-bp DNA ladder = experiment: DNA binding assay (electrophoretic mobility shift); conditions: 1 μg analog with 0.2 μg 100-bp DNA ladder, 37 °C, 60 min, 1.8% agarose gel with EtBr
Protocol: To evaluate the binding ability of the AOD analogs to intracellular components, a DNA binding assay was performed as previously described with minor modifications. The DNA-binding ability of the AOD analogs was assessed through observation of the inhibition of migration of DNA bands through agarose gels. A commercial 100-bp DNA ladder (0.2 μg) (Bioneer Corp., Daejeon, South Korea) was mixed with each analog (1 μg) in 0.01% acetic acid, and the resulting mixture was incubated at 37 °C for 60 min and then electrophoresed on 1.8% agarose gels containing 0.5 μg/mL ethidium bromide (EtBr). HAc (0.01%) was used as a negative control.
To determine the concentration required for the interaction of AOD analogs with DNA, a DNA binding assay was performed with various mixing ratios of analog A3 (0.25–1.0 μg/mL) and 100-bp DNA ladder (0.1–0.4 μg), as described above.

[1] = test system: 100-bp DNA ladder and DNA polymerase; experiment: Competitive binding between DNA and DNA polymerase; conditions: 1 μg peptide, 0.2 μg 100-bp DNA ladder, DNA polymerase 1.0 μL (5 units/μL), 37 °C, 60 min
Protocol: To assess the preferential binding ability of the AOD analogs to DNA or DNA polymerase, a competitive binding assay was performed. Briefly, AOD analog was added to a reaction mixture containing DNA or DNA polymerase and incubated for 60 min at 37 °C. […] Piscidin 1 and 0.01% HAc were the positive and negative controls, respectively.

[2] = test system: E. coli DH5α genomic DNA (16S ribosomal gene); experiment: DNA amplification (PCR) inhibition assay; type: biochemical, Escherichia coli; conditions: 1.5 µg of each analog, 0.2 µg E. coli DH5α gDNA, 30 cycles
Protocol: To determine whether AOD analogs target DNA amplification, the ability of the analogs to inhibit DNA amplification was assessed using E. coli DH5α genomic DNA (gDNA). Total gDNA was extracted using the phenol–chloroform method, as described previously. To assess the inhibition of DNA amplification, 1.5 µg AOD analog was added to the polymerase chain reaction (PCR) mixture. The PCR solution consisted of 0.2 µg purified gDNA, 5 µL 10× PCR buffer with MgCl2, 4 µL of each dNTP at 2.5 mM, 0.25 μL Ex Taq polymerase (Takara Bio, Shiga, Japan), 2.0 pmol each of primers 27F (5′-[…]-3′) and 1492R (5′-TACGGCTACCTTGTTACGA-CTT-3′), and up to 50 µL sterile distilled water. The PCR thermal cycling conditions were as follows: initial denaturation at 94 °C for 5 min; 30 cycles of 94 °C for 30 s, 55 °C for 30 s, and 72 °C for 2 min; and a final extension for 10 min at 72 °C. PCR was conducted using a Type 9700 Thermal Cycler (Perkin-Elmer, Norwalk City, CA, USA). The PCR products were confirmed through 1.5% agarose gel electrophoresis with 0.5 μg/mL EtBr. Piscidin 1 was used as a positive control and 0.01% HAc was used as a negative control.

V. parahaemolyticus gDNA = experiment: Bacterial gDNA binding (electrophoretic mobility shift); parameters: species or system Vibrio parahaemolyticus; conditions: 1 μg of analog with V. parahaemolyticus gDNA, agarose gel
Protocol: To evaluate the binding ability of the AOD analogs to intracellular components, a DNA binding assay was performed as previously described with minor modifications. The DNA-binding ability of the AOD analogs was assessed through observation of the inhibition of migration of DNA bands through agarose gels. […] HAc (0.01%) was used as a negative control.

several microorganisms = conditions: analog peptides from the C-terminus of MGD-1; cited from earlier work
Text: This peptide contains three disulfide bridges linked with six cysteine (Cys) residues, which contribute to its structural stability. For the development of potential AMPs from AOD, the AOD molecule may be inappropriate due to its complex structure containing six Cys residues and long sequence length (38 residues), which complicate the recreation of its structure and increase production costs. In a previou ...

[3] = test system: human red blood cells (RBCs; blood type B); conditions: 3% hematocrit, 3.13–100 μg/mL, 60 min, 37 °C, absorbance 542 nm, triplicate

| Compound | Minimal Effective Concentration (B. subtilis KCTC1021) | Minimal Effective Concentration (C. acnes KCTC3314) | Minimal Effective Concentration (S. epidermidis KCTC1917) | Minimal Effective Concentration (S. mutans KCCM40105) | Minimal Effective Concentration (A. hydrophila KCTC2358) | Minimal Effective Concentration (E. coli D31) | Minimal Effective Concentration (E. coli ML35p) | Minimal Effective Concentration (P. aeruginosa KCTC2004) | Minimal Effective Concentration (S. enterica KCTC2514) | Minimal Effective Concentration (S. sonnei KCTC2009) | Minimal Effective Concentration (C. albicans KCTC7965) | electrophoretic mobility of the DNA (DNA-binding ability) (100-bp DNA ladder) | competitive binding between DNA and DNA polymerase (electrophoretic mobility of DNA) [1] | inhibition of DNA amplification (PCR) [2] | electrophoretic mobility of V. parahaemolyticus gDNA (V. parahaemolyticus gDNA) | antimicrobial activity (in words) (several microorganisms) | hemolytic activity [3] |
| --- | --- | --- | --- | --- | --- | --- | --- | --- | --- | --- | --- | --- | --- | --- | --- | --- | --- |
| N=C(N)NCCC[C@@H]1NC(=O)[C@H](CCCNC(=N)N)NC(=O)[C@H](CCCNC(=N)N)NC(=O)[C@H](CCCNC(=N)N)NC(=O)[C@H](Cc2c[nH]c3ccccc23)NC(=O)[C@H](CCCNC(=N)N)NC(=O)[C@H](CCCNC(=N)N)NC(=O)[C@@H](N)CSSC[C@@H](C(=O)O)NC1=O [Analog A3] (H-CRRWRRRRC-OH; disulfide 1-9) | 0.4 µg/mL | 53.7 µg/mL | 4.2 µg/mL | 1.5 µg/mL | 3.3 µg/mL | 5.0 µg/mL | 6.8 µg/mL | 3.0 µg/mL | 6.5 µg/mL | 5.5 µg/mL | 54.0 µg/mL | inhibited | inhibited | partially or completely inhibited | inhibited | – | – |
| N=C(N)NCCC[C@@H]1NC(=O)[C@H](CCCNC(=N)N)NC(=O)[C@H](Cc2c[nH]c3ccccc23)NC(=O)CNC(=O)[C@H](Cc2c[nH]c3ccccc23)NC(=O)[C@H](CCCNC(=N)N)NC(=O)[C@H](CCCNC(=N)N)NC(=O)[C@@H](N)CSSC[C@@H](C(N)=O)NC1=O [Analog A4] (H-CRRWGWRRC-NH2; disulfide 1-9) | 2.5 µg/mL | 27.1 µg/mL | 15.8 µg/mL | 10.5 µg/mL | – | 5.7 µg/mL | 2.2 µg/mL | 29.5 µg/mL | – | – | 17.2 µg/mL | inhibited | inhibited | partially or completely inhibited | inhibited | – | – |
| CGGWHRLRC [analog peptide derived from the C-terminus (loop 3) of MGD-1] | – | – | – | – | – | – | – | – | – | – | – | – | – | – | – | potent antimicrobial activity | – |
| CKKWKRKRC [Lys-substituted analog peptide derived from …] | – | – | – | – | – | – | – | – | – | – | – | – | – | – | – | stronger antibacterial activity than the parent analog peptide | – |
| Piscidin 1: α-helical AMP isolated from hybrid striped bass, used as a positive control (FFHHIFRGIVHVGKTIHRLVTG) [reference compound] | 2.3 µg/mL | – | – | 3.2 µg/mL | 9.1 µg/mL | 2.0 µg/mL | 2.3 µg/mL | 8.0 µg/mL | 4.6 µg/mL | 8.6 µg/mL | 11.8 µg/mL | – | preferentially binds to DNA polymerase over DNA | did not inhibit | – | – | strong hemolysis, even at very low concentrations (from 6.25 μg/mL) |
